Tests used:
[1] = Thermogravimetric analysis (TGA) of crystalline form; assay type: physicochemical; settings: crystalline single component form, dry nitrogen flow
Protocol: Thermal gravimetric analysis (TGA) was carried out using a TA instruments 2910 under dry nitrogen flow (30 mL/min for both the furnace and the balance). For a typical experiment, 5-10 mg of solid material was placed into the pan and was allowed to equilibrate at room temperature under nitrogen for approximately 5 minutes prior to the start of each experiment to ensure a stable baseline. A heating rate of 1° C./min or 5° C./min was utilized.

[2] = biological target: SARS-CoV-2 spike protein S1 C-terminal domain (Severe acute respiratory syndrome coronavirus 2, UniProt P0DTC2); settings: can inhibit the virus' ability to enter new host cells; cited from earlier work
[3] = compared with THCa under similar conditions; cited from earlier work

SMILES	TGA degradation onset [1]	binding to SARS-CoV-2 spike protein S1 C-terminal domain [2]	rate of decarboxylation [3]
CCCCCc1cc2c(c(O)c1C(=O)O)[C@@H]1C=C(C)CC[C@H]1C(C)(C)O2 [THCa, tetrahydrocannabinolic acid]	about 125 °C		
CCCCCc1cc(O)c(C/C=C(\C)CCC=C(C)C)c(O)c1C(=O)O [CBGa, cannabigerolic acid]	about 115 °C	found to bind to the SARS-CoV-2 spike protein S1 C-terminal domain	
C=C(C)[C@@H]1CCC(C)=C[C@H]1c1c(O)cc(CCCCC)c(C(=O)O)c1O [CBDa, cannabidiolic acid]	about 150 °C	found to bind to the SARS-CoV-2 spike protein S1 C-terminal domain	decarboxylates at a faster rate than THCa

Source: US20260008762A1, “CANNABINOID ACIDS CRYSTALLINE FORMS, METHODS OF PRODUCING, AND USES THEREOF” (priority 2022, published 2026)
